Measurements from the NIST ThermoML archive (doi:10.1016/j.fluid.2015.12.048).
Numbers after ± are expanded uncertainties.

Assays:
[1] = Crystal
[2] = Molar enthalpy of transition or fusion; conditions: Crystal; DSC

| Normal melting temperature ([1]; DTA) [°C] | Normal melting temperature ([1]; visual observation) [°C] | Molar enthalpy of transition or fusion [2] [kcal/mol] | Structure (SMILES) |
| --- | --- | --- | --- |
| 49.7 ± 0.4 | 50.0 ± 0.4 | 4.19 ± 0.103 | Cc1ccc(C(C)C)c(O)c1 [3-methyl-6-isopropylphenol] |
| 7.0 ± 0.4 | 7.0 ± 0.4 | – | CCCCCCCCCCO [decan-1-ol] |
| -15.0 ± 0.4 | -15.0 ± 0.4 | – | OCc1ccccc1 [benzenemethanol] |
| 43.6 ± 0.4 | 42.8 ± 0.4 | 3.07 ± 0.086 | CC(C)[C@@H]1CC[C@@H](C)C[C@H]1O [L-menthol] |
